According to patent US6492421B1, “Substituted phenylalanine type compounds which inhibit leukocyte adhesion mediated by VLA-4” (Athena Neurosciences, Inc., priority 1997, dated 2002):
Square brackets hold non-standard residues; d marks the D form. Side chains are listed from the residue outwards. Peptide text beside a SMILES is read from it. * marks the point of attachment. Phe(4-NH2) = Nc1ccc(C[C@H](N)C(=O)O)cc1; Tos = Cc1ccc(S(=O)(=O)*)cc1; Boc = CC(C)(C)OC(=O)*; Cam = NC(=O)C*

Tested on: Experimental Autoimmune (or Allergic) Encephalomyelitis (“EAE”)
Assay: In vivo evaluation: Experimental Autoimmune Encephalomyelitis (EAE) model
Design: species or system rats or guinea pigs
Conditions: treatment began on Day 8; 10 mg/kg to 200 mg/kg, bid, for five days; SC, PO or IP
For `Cc1ccc(S(=O)(=O)N2CCC[C@H]2C(=O)N[C@@H](Cc2ccc(NC(=O)[C@@H](C)NC(=O)OC(C)(C)C)cc2)C(=O)O)cc1` [Example 5, N-(Toluene-4-sulfonyl)-L-prolyl-4-[(N-tert-butoxylcarbonyl-D-alanyl)amino]-L-phenylalanine] (Tos-Pro-[Phe(4-NH2)]([dA-Boc])-OH), the “active in EAE model (delayed the onset of symptoms, e.g., clinical scores no greater than 2 or slowed body weight loss as compared to the control)” value was “active”. With `Cc1ccc(S(=O)(=O)N2CCC[C@H]2C(=O)N[C@@H](Cc2ccc(-c3ccccc3C(=O)O)cc2)C(=O)O)cc1` [Example 12, N-(Toluene4-sulfonyl)-L-prolyl-4-[2-(carboxy)phenyl]-L-phenylalanine] the “active in EAE model (delayed the onset of symptoms, e.g., clinical scores no greater than 2 or slowed body weight loss as compared to the control)” value was “active”. With `Cc1ccc(S(=O)(=O)N2CCC[C@H]2C(=O)N[C@@H](Cc2ccc(OCCCN(C)C)cc2)C(=O)O)cc1` [Example 18, N-(Toluene-4-sulfonyl)-L-prolyl-4-[3-(N,N-dimethylamino)propoxy]-L-phenylalanine] the “active in EAE model (delayed the onset of symptoms, e.g., clinical scores no greater than 2 or slowed body weight loss as compared to the control)” value was “active”. In the case of “N-(Toluene-4-sulfonyl)-L-(5,5-dimethyl)thiaprolyl-4-[2-(N,N-dimethylamino)ethoxy]-L-phenylalanine [Example 20]”, the “active in EAE model (delayed the onset of symptoms, e.g., clinical scores no greater than 2 or slowed body weight loss as compared to the control)” value is reported as “active”.

Tested on: not given
Assay: not given
Conditions: not given
In the case of `COC(=O)[C@H](Cc1ccc(OCCN2CCC(O)(c3ccccc3)CC2)cc1)NC(=O)[C@@H]1CCCN1S(=O)(=O)c1ccc(C)cc1`, the melting point is reported as 122 to 123 °C. Work on `COC(=O)[C@H](Cc1ccc(N(CCCN(C)C)S(=O)(=O)C(F)(F)F)cc1)NC(=O)[C@@H]1CCCN1S(=O)(=O)c1ccc(C)cc1` [Example 16, N-(Toluene-4-sulfonyl)-L-prolyl-L-4-{N-[3-(N,N-dimethylamino)propyl]-N-[trifluoromethanesulfonyl]amino}-L-phenylalanine Methyl Ester] yielded a melting point of 45 to 55 °C. Work on `Cc1ccc(S(=O)(=O)N2CCC[C@H]2C(=O)N[C@@H](Cc2ccc(OCCN(C(C)C)C(C)C)cc2)C(=O)O)cc1` [Example 23, N-(Toluene-4-sulfonyl)-L-prolyl-4-[2-(N,N-diisopropylamino)ethoxy]-L-phenylalanine] yielded a melting point of 121 to 124 °C. With `CN(C)CCCOc1ccc(C[C@H](NC(=O)[C@@H]2CCCN2S(=O)(=O)c2cccs2)C(=O)O)cc1` [Example 24, N-(Thiophene-2-sulfonyl)-L-prolyl-4-[3-(N,N-dimethylamino)propoxy]-L-phenylalanine] the melting point was over 200 °C. Work on `CCN(CC)CCOc1ccc(C[C@H](NC(=O)[C@@H]2CCCN2S(=O)(=O)c2ccc(C)cc2)C(=O)O)cc1` [Example 26, N-(Toluene-4-sulfonyl)-L-prolyl-4-[2-(N,N-diethylamino)ethoxy]-L-phenylalanine] yielded a melting point of 105 to 109 °C. For `CN(C)CCCOc1ccc(C[C@H](NC(=O)[C@@H]2CCCN2S(=O)(=O)c2cc(Cl)sc2Cl)C(=O)O)cc1` [Example 27, N-(2,5-Dichlorothiophene-3-sulfonyl)-L-prolyl-4-[3-(N,N-dimethylamino)propoxy]-L-phenylalanine], the melting point was over 200 °C. With `Cc1ccc(S(=O)(=O)N2CCC[C@H]2C(=O)N[C@@H](Cc2ccc(OCCN3CCCCC3)cc2)C(=O)O)cc1` [Example 46, N-(Toluene-4-sulfonyl)-L-prolyl-4-[2-(piperidin-1-yl)ethoxy]-L-phenylalanine] the melting point was 102 to 106 °C. `Cc1ccc(S(=O)(=O)N2CCC[C@H]2C(=O)N[C@@H](Cc2ccc(OCC(=O)O)cc2)C(=O)O)cc1` [Example 56, N-(Toluene-4-sulfonyl)-L-prolyl-4-[(carboxy)methoxy]-L-phenylalanine] gave a melting point of 70 to 73 °C. With `Cc1ccc(S(=O)(=O)N2CCC[C@H]2C(=O)N[C@@H](Cc2ccc(OCC(N)=O)cc2)C(=O)O)cc1` [Example 58, N-(Toluene-4-sulfonyl)-L-prolyl-4-[(aminocarbonyl)methoxy]-L-phenylalanine] (Tos-Pro-Tyr(Cam)-OH) the melting point was 195 to 196 °C. `Cc1ccc(S(=O)(=O)N2CCC[C@H]2C(=O)N[C@@H](Cc2ccc(OCC(=O)NC(C)(C)C)cc2)C(=O)O)cc1` [Example 59, N-(Toluene-4-sulfonyl)-L-prolyl-4-[(N-tert-butylaminocarbonyl)methoxy]-L-phenylalanine] showed a melting point of 88 to 89 °C.
